Experimental data reported in patent US9040717B2, “Pyrazole-amide compounds and pharmaceutical use thereof” (JAPAN TOBACCO INC., priority 2013, dated 2015).

Target: hERG (Homo sapiens (Human), UniProt Q12809)
Assay: hERG whole cell patch clamp test
Format: cell-based
Details: human, hERG-transfected HEK293 cells, pH 7.4; whole cell patch clamp
Procedure: Using human ether-a-go-go related gene (hERG)-transfected HEK293 cells (Cytomyx Limited), an influence on hERG current was examined according to the whole cell patch clamp technique. The hERG-transfected HEK293 cells were passaged using a CO2 incubator (BNA-111, TABAI ESPEC CORP.) under the set conditions of 37° C., 5% CO2, saturated humidity. Culture containers used were Collagen Type I Coated 75 cm^2 flask (4123-010, AGC TECHNO GLASS CO., Ltd.) and Collagen Type I Coated 35 mm culture dish (4000-010, AGC TECHNO GLASS CO., Ltd.). The culture medium used was E-MEM (Eagle Minimum Essential Medium (Earle's Salts, Nikken biomedical laboratory) added with 10% FCS (Fetal calf serum, BioWest, L.L.C.) and 1% MEM Non-Essential Amino Acids Solution (NEAA, Invitrogen Corporation). Geneticin for the selection of hERG gene expressing cells was added thereto to a concentration of 400 μg/mL. As the cells for the measurement, 3×10^4 hERG-transfected HEK293 cells were plated on a 35 mm culture dish 4 to 7 days before measurement of the hERG current. The culture dish produced for the measurement contained the above-mentioned culture medium without geneticin (Invitrogen Corporation).
The highest evaluation concentration of each compound was determined from the highest concentration at which precipitation was not found in the standard extracellular fluid (NaCl: 140 mmol/L, KCl: 2.5 mmol/L, MgCl2:2 mmol/L, CaCl2: 2 mmol/L, HEPES: 10 mmol/L, glucose: 10 mmol/L (adjusted to pH 7.4 with Tris-base)). As the application method, each solution to be applied was ejected from a Y-tube having a tip diameter of about 0.25 mm, which was adjacent (about 2 mm) to the cells, and applied to the cells. The ejection rate was about 0.4 mL/min.
The experiment was performed at room temperature under a phase contrast microscope. The 35 mm culture dish plated with the cells was set on a measurement apparatus, and the standard extracellular fluid was continuously applied to the cells from the Y-tube. A glass electrode for the measurement was filled with an intracellular fluid (Potassium Gluconate: 130 mmol/L, KCl: 20 mmol/L, MgCl2: 1 mmol/L, ATP-Mg: 5 mmol/L, EGTA: 3.5 mmol/L, HEPES: 10 mmol/L (adjusted to pH 7.2 with Tris-base)). A conventional whole cell patch clamp method was applied to the cells, and the maintenance electric potential was set to −80 mV. Under a fixed electric potential, the whole cell current was amplified by an amplifier for patch clamp (AXOPATCH-200B, Axon Instruments, Inc.), and the data was loaded into a computer (IMC-P642400, Intermedical Co., Ltd.) using a data acquisition analysis software (pCLAMP 9.2, Axon Instruments, Inc.).
The measurement of the hERG current was performed in the following two steps. In both cases, the hERG current was initiated by giving a command potential (maintenance electric potential −80 mV, prepulse +20 mV, 1.5 sec, test-pulse −50 mV, 1.5 sec).
Step (1): The above-mentioned command potential was given at 0.1 Hz for 2 min.
Step (2): The above-mentioned command potential was subjected to P/3 subtraction of pCLAMP 9.2 to remove leak current. This was repeated three times and an average thereof was taken as hERG current.
Subsequent to step (1), Step (2) was performed (about 3 min), and the maximum tail current obtained by applying a test-pulse to the hERG current obtained by the method of step (2) was taken as hERG current value. Hereafter, the operations of (1) and (2) were alternately repeated until completion of the experiment and the hERG current value was measured.
Stable hERG current value was recorded three times (about 10 min), and the standard extracellular fluid was instantaneously exchanged with each application fluid. The hERG current value was measured three times (about 10 min) in the same manner during perfusion of the application fluid, and the current value obtained by the 3rd measurement was taken as hERG current value after perfusion of the application fluid. […]

Chain of hERG (Q12809 whole entry): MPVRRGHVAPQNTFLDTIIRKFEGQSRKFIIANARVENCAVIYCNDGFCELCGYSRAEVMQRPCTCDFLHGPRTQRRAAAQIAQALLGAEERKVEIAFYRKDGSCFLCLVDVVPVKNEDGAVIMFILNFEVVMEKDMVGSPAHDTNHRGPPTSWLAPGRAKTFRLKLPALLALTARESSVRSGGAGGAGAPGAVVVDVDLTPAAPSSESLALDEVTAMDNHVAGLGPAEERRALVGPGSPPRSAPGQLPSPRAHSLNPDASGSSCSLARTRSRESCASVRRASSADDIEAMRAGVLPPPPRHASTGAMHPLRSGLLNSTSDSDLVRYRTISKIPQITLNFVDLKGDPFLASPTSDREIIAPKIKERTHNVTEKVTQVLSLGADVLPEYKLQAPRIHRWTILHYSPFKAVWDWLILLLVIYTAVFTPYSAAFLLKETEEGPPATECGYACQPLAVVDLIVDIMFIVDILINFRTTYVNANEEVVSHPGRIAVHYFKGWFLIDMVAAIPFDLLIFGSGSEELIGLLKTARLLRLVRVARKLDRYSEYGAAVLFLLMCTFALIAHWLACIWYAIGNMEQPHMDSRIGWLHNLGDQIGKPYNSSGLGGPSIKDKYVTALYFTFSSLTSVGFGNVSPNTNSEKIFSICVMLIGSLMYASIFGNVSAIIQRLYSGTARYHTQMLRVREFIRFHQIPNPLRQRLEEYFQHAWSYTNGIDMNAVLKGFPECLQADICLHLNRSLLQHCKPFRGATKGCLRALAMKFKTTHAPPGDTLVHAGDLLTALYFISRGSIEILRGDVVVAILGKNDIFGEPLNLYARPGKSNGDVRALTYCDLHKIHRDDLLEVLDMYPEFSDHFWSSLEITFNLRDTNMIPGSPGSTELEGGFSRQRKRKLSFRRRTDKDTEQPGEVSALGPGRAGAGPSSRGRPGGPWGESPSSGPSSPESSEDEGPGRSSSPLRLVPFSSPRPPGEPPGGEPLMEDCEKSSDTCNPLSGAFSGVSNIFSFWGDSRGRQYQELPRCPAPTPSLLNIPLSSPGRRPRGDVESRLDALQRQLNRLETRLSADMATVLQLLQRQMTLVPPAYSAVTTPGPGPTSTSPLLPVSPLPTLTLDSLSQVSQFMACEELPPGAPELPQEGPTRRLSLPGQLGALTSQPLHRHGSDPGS

SMILES: NC(=O)Cn1cc(-c2cc(OCCC34CC5CC(CC(O)(C5)C3)C4)cc3c2-c2ccccc2[C@]3(O)C(F)(F)F)cn1 [Compound (A), 2-(4-{(9R)-9-Hydroxy-2-[2-(3-hydroxyadamantan-1-yl)ethoxy]-9-(trifluoromethyl)-9H-fluoren-4-yl}-1H-pyrazol-1-yl)acetamide]
- IC50 at 10 min: > 10 µM
